The results in this text go back to patent US20120184562A1, “1,6- AND 1,8-NAPHTHYRIDINES” (priority 2011, published 2012).

The target in assay [1] is T1, Human DYRK1A (Homo sapiens, UniProt Q13627).
T1 construct: purchased Invitrogen PV3997
The experiment in a line: DYRK1A Kinase TR-FRET (IMAP-Tb) Assay. The class given is biochemical. The note with it: TR-FRET (IMAP-Tb); ATP 70 μM; 37° C., 60 minutes; average of multiple runs; read-out: Enzyme IC50 (μM) DYRK1A. The text has this: DYRK1A Kinase TR-FRET (IMAP-Tb) Assay
The kinase TR-FRET (IMAP-Tb) assay uses a fluorescence labeled substrate peptide in the kinase reaction. Upon phosphorylation by the kinase, phosphopeptide is produced, which will be detected by the binding solution provided in IMAP TR-FRET binding kit. After the completion of the kinase reaction, the reaction will be stopped by adding the binding solution containing terbium tracer. This tracer is immobilized on the surface of the IMAP beads, which also contain metal ions on the beads that bind to the phospho-groups of the products. Thus the phosphorylated product of the reaction can enter into close proximity to the tracer, producing resonance energy transfer. Due to the long lifetime of terbium (Tb) fluorescence the detection can be run in time resolved mode, which virtually eliminates fluorescence interference from assay components or compounds.
The TR-FRET signal measurement from this assay, given as an IC50 measurement, is a measure of a test compound's ability to interfere with the phosphorylation of the peptide substrate, that is it inhibits the phosphorylation of the substrate peptide by DYRK1A, and is thus a measure of the test compound's ability to inhibit the activity of DYRK1A.
• 1. Human DYRK1A: from Invitrogen. Part #PV3997 • 2. Substrate Peptide: […] • 3. IMAP TR-FRET IPP Explorer Kit: from Molecular Devices. Part #R8157 • 4. Kinase Assay Buffer (KAB): 10 mM HEPES pH 7.0, 50 mM NaCl, 5 mM MgCl2, 1 mM DTT, 1 mM NaVO4, 200 μg/mL BSA (0.02%) • 5. Assay Plate: Remp polypropylene clear 384-well microplate. […] Detection Plate: Costa black 384-well microplate. […] Transfer 1.5 μL of 20× compound solution to each well of an assay plate. • 2. Add to each well 22.5 μL of KAB Buffer. • 3. Add to each well 3 μL of the solution of DYRK1A and ATP. […] Add to each well 3 μL of the substrate peptide. The assay concentration is 1.0 μM • 5. Incubate the assay plates at 37° C. for 60 minutes. • 6. Add 18 μL of Detection Solution (1:800 diluted Progress bead stock, 1:400 diluted Tb stock, 80% Buffer A, and 20% Buffer B) into each well of detection plates. • 7. Transfer 6 μL of assay solution from the assay plate to the detection plate. • 8. Shake detection plates for 30 minutes. • 9. Read plates in Envision with wavelength set at excitation 340 nm for Tb, emission 490 nm, and […].
A general note: Time-resolved FRET reads energy transfer from a long-lived donor to a nearby acceptor.

Assay [2] has as its target T2, Human DYRK1B (Homo sapiens, UniProt Q9Y463).
T2 construct: purchased Invitrogen PR8350B (former PV4649)
As to the kind of experiment: DYRK1B Kinase TR-FRET (IMAP-Tb) Assay. The format is biochemical. The text has this:
DYRK1B Kinase TR-FRET (IMAP-Tb) Assay The kinase TR-FRET (IMAP-Tb) assay uses a fluorescence labeled substrate peptide in the kinase reaction. Upon phosphorylation by the kinase, phosphopeptide is produced, which will be detected by the binding solution provided in IMAP TR-FRET binding kit. After the completion of the kinase reaction, the reaction will be stopped by adding the binding solution containing terbium tracer. This tracer is immobilized on the surface of the IMAP beads, which also contain metal ions on the beads that bind to the phospho-groups of the products. Thus the phosphorylated product of the reaction can enter into close proximity to the tracer, producing resonance energy transfer. Due to the long lifetime of terbium (Tb) fluorescence the detection can be run in time resolved mode, which virtually eliminates fluorescence interference from assay components or compounds. The TR-FRET signal measurement from this assay, given as an IC50 measurement, is a measure of a test compound's ability to interfere with the phosphorylation of the peptide substrate, that is it inhibits the phosphorylation of the substrate peptide by DYRK1B, and is thus a measure of the test compound's ability to inhibit the activity of DYRK1B. […] Human DYRK1B: from Invitrogen. Part #PR8350B (former PV4649) • 2. Substrate Peptide: in-house synthesized: RRRFRPASPLRGPPK • 3. IMAP TR-FRET IPP Explorer Kit: from Molecular Devices. Part #R8157 • 4. Kinase Assay Buffer (KAB): 10 mM HEPES pH 7.0, 50 mM NaCl, 5 mM MgCl2, 1 mM DTT, 1 mM NaVO4, 200 μg/mL BSA (0.02%) • 5. Assay Plate: Remp polypropylene clear 384-well microplate. Cat#23490-102 • 6. Detection Plate: Costa black 384-well microplate. Cat #3710 Assay Procedure: This assay was performed as follows: • 1. Transfer 1.5 μL of 20× compound solution to each well of an assay plate. • 2. Add to each well 22.5 μL of KAB Buffer. • 3. Add to each well 3 μL of the solution of DYRK1B and ATP. […] Add to each well 3 μL of the substrate peptide. The assay concentration is 1.0 μM • 5. Incubate the assay plates at 37° C. for 60 minutes. • 6. Add 18 μL of Detection Solution (1:800 diluted Progress bead stock, 1:400 diluted Tb stock, 80% Buffer A, and 20% Buffer B) into each well of detection plates. • 7. Transfer 6 μL of assay solution from the assay plate to the detection plate. • 8. Shake detection plates for 30 minutes. • 9. Read plates in Envision with wavelength set at excitation 340 nm for Tb, emission 490 nm, and […] 520 nm. • 10. Calculation: TR-FRET Signal=(Reading at […]/Reading at 490 nM)×2000000

The subject of assay [3] is SW620 human colon cancer cells. The experiment in a line: SW620 Cell Viability Assay. The format is cell-based. The note with it: SW-620, 96 h, 4 days incubation, CellTiter-Glo Luminescent Cell Viability Assay, read-out: Cellular EC50 (μM) SW620. The protocol:
SW620 Cell Viability Assay
1. Cell Plate Preparation: SW620 human colon cancer cells (known to express DYRK1B), obtained from ATCC, were seeded into 96-well plates at 3×10^3 cells/well in 50 μL of media. • Harvested the required number of cells (counts & viability determined by Guava Viacount). • Centrifuge cells to pellet and removed supernant. • Resuspended in growth media (50 μL/well) & pipetted thoroughly to break up clumps. • Setup for ˜100 wells/plate, therefore, VT=5 mL/plate @ […]. 1A. Some cells (S—) were allowed to attach for 24 hrs, serum starved for 48 hrs, and then followed with drug treatments. Test compound solution were prepared in regular corresponding media supplemented with serum. 2. Test Compound Preparation: Test compounds were solubilized in either DMSO or media and prepared at various stock concentrations. • All compounds were incubated at 37° C. for 30 minutes and vortexed. • (5 mM stocks of test compound were prepared for non-soluble compounds)
• The 10 mM test compound stock was diluted to a concentration of 100× the final Cmax concentration. • Then the test compound stock is diluted 50-fold in media and/or second compound for a final Cmax concentration in the test compound plate. • The Cmax in the test compound plate (2% DMSO) is 2-fold higher than the final Cmax in the cell plate (60 uL titrations were 1:3). 4. Viability Assay: This assay was performed as follows: • Transfer 50 μL of test compound solution per well from the test compound plate onto the cell plate prepared in Step #1. • Mix the plate with treated cells by pipetting up and down three times with 200 μL multi-channel pipette. • Incubate the cells in 5% CO2 incubator @ 37° C. for 4 days. • Run the CellTiter-Glo™ Luminescent Cell Viability Assay.
The results of this assay, given as EC50 values, indicate the concentration of test compound that inhibits tumor cell proliferation by 50%.

[4] abbreviates: TR-FRET (IMAP-Tb), ATP 70 μM, 37° C., 60 minutes, average of multiple runs, read-out: Enzyme IC50 (μM) DYRK1B.

The structures appear in SMILES notation. Structures can show the parent of a compound that is named as a salt. Where two headings read alike, the source gives them in different places.

T2 sequence (Q9Y463 whole entry): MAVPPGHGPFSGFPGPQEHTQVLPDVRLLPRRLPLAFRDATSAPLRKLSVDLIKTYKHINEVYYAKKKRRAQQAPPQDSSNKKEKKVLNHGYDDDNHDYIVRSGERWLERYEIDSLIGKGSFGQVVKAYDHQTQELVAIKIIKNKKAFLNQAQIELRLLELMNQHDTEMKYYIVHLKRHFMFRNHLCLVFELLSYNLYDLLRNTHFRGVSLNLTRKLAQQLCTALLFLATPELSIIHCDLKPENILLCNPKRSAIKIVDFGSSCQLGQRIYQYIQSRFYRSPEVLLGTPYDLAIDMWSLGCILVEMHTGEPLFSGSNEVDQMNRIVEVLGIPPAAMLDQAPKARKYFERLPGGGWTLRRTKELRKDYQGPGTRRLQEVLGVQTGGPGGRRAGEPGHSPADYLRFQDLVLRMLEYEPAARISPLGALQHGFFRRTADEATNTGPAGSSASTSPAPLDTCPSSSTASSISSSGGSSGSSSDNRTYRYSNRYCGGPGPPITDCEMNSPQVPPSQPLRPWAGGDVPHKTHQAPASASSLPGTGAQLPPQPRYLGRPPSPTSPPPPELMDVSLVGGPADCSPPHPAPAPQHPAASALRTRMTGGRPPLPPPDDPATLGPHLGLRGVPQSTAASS

The IC50 is the concentration at which inhibition is half-maximal. By EC50 is commonly meant the concentration at which the effect is half-maximal. With `COc1ccc2cc(C(=O)Nc3cc(C(=O)NCc4cccc(Cl)c4)ccc3Cl)c(=O)[nH]c2n1` [Example 95, N-(2-Chloro-5-(3-chlorobenzylcarbamoyl)phenyl)-7-methoxy-2-oxo-1,2-dihydro-1,8-naphthyridine-3-carboxamide], the IC50 was 0.019 µM in assay [1] and 0.047 µM in assay [2] (setting [4]). Moreover, the EC50 in assay [3] amounted to 1.24 µM.

As for `COc1cc2[nH]c(=O)c(C(=O)Nc3cc(C(=O)NC(CCN)c4ccccc4)ccc3C)cc2cn1` (stereo not shown) [Example 61, 7-Methoxy-2-oxo-1,2-dihydro-[1,6]naphthyridine-3-carboxylic acid [5-(3-amino-1-phenyl-propylcarbamoyl)-2-methyl-phenyl]-amide; hydrochloride], the figures for the IC50 in assay [1] and in assay [2] (setting [4]) were 0.034 µM and 0.155 µM, respectively. Besides, in assay [3], the half-maximal effective concentration (EC50) amounted to 2.27 µM.

As to `COc1cc2[nH]c(=O)c(C(=O)Nc3cc(C(=O)NC(CCN)c4ccsc4)ccc3Cl)cc2cn1` (stereo not shown) [Example 53, 7-Methoxy-2-oxo-1,2-dihydro-[1,6]naphthyridine-3-carboxylic acid [5-(3-amino-1-thiophen-3-yl-propylcarbamoyl)-2-chloro-phenyl]-amide], in assay [2], the half-maximal inhibitory concentration (IC50) stood at 0.0138 µM. The 50% effective concentration (EC50) in assay [3] was determined as 0.0524 µM.

In the case of `COc1cc2[nH]c(=O)c(C(=O)Nc3cc(C(=O)NCc4ccsc4)ccc3Cl)cc2cn1` [Example 43, 7-Methoxy-2-oxo-1,2-dihydro-[1,6]naphthyridine-3-carboxylic acid {2-chloro-5-[(thiophen-3-ylmethyl)-carbamoyl]-phenyl}-amide], the IC50 amounted to 0.028 µM in assay [1] and 0.041 µM in assay [2] (setting [4]). Also, in assay [3], the EC50 was over 10 µM.

As for `COC(=O)c1ccc(C)c(NC(=O)c2cc3cnc(NCC(O)CO)cc3[nH]c2=O)c1` (stereo not shown) [Example 49, 3-{[7-(2,3-Dihydroxy-propylamino)-2-oxo-1,2-dihydro-[1,6]naphthyridine-3-carbonyl]-amino}-4-methyl-benzoic acid methyl ester; hydrochloride], the IC50 in assay [1] was determined as 0.3 µM; in assay [2] (setting [4]), 0.537 µM. Also, the concentration for a half-maximal effect (EC50) in assay [3] is over 10 µM.

Consider `COc1ccc2cc(C(=O)Nc3cc(C(=O)NC(CCN)c4ccccc4)ccc3Cl)c(=O)[nH]c2n1` (stereo not shown) [Example 101, N-(5-(3-Amino-1-phenylpropylcarbamoyl)-2-chlorophenyl)-7-methoxy-2-oxo-1,2-dihydro-1,8-naphthyridine-3-carboxamide], for which the IC50 was 0.0392 µM in assay [1] and 0.0527 µM in assay [2] (setting [4]). In assay [3], the half-maximal effective concentration (EC50) is 0.0273 µM.

For `COc1cc2[nH]c(=O)c(C(=O)Nc3cc(C(=O)NC(CN)c4ccccc4)ccc3C)cc2cn1` (stereo not shown) [Example 55, 7-Methoxy-2-oxo-1,2-dihydro-[1,6]naphthyridine-3-carboxylic acid [5-(2-amino-1-phenyl-ethylcarbamoyl)-2-methyl-phenyl]-amide; hydrochloride], the 50% inhibitory concentration (IC50) in assay [1] came out at 0.0506 µM; in assay [2] (setting [4]), 0.0915 µM. The EC50 in assay [3] is 0.68 µM.

`COC(=O)c1ccc(Cl)c(NC(=O)c2cc3ccc(N4CCN(C)CC4)nc3[nH]c2=O)c1` [Example 88, 4-Chloro-3-{[7-(4-methyl-piperazin-1-yl)-2-oxo-1,2-dihydro-[1,8]naphthyridine-3-carbonyl]-amino}-benzoic acid methyl ester]: the IC50 came out at 0.451 µM in assay [1] and 0.513 µM in assay [2] (setting [4]). For the same compound, the EC50 in assay [3] was found to be 1.53 µM.

In the case of `COc1cc2[nH]c(=O)c(C(=O)Nc3cc(C(=O)NC(CN)c4ccccc4)ccc3Cl)cc2cn1` (stereo not shown) [Example 45, 7-Methoxy-2-oxo-1,2-dihydro-[1,6]naphthyridine-3-carboxylic acid [5-(2-amino-1-phenyl-ethylcarbamoyl)-2-chloro-phenyl]-amide; hydrochloride], the IC50 in assay [1] worked out at 0.0115 µM; in assay [2] (setting [4]), 0.014 µM. The concentration giving a half-maximal response (EC50) in assay [3] was determined as 0.177 µM.

`COc1cc2[nH]c(=O)c(C(=O)Nc3cc(C(=O)NC(CCN)c4cccc(Cl)c4)ccc3Cl)cc2cn1` (stereo not shown) [Example 67, 7-Methoxy-2-oxo-1,2-dihydro-[1,6]naphthyridine-3-carboxylic acid {5-[3-amino-1-(3-chloro-phenyl)-propylcarbamoyl]-2-chloro-phenyl}-amide; hydrochloride]: the results for the IC50 in assay [1] and in assay [2] (setting [4]) were 0.00952 µM and 0.0854 µM, respectively. For the same compound, in assay [3], the EC50 is 0.103 µM.

With `COc1cc2[nH]c(=O)c(C(=O)Nc3cc(C(=O)NC(CN)c4ccsc4)ccc3Cl)cc2cn1` (stereo not shown) [Example 71, 7-Methoxy-2-oxo-1,2-dihydro-[1,6]naphthyridine-3-carboxylic acid [5-(2-amino-1-thiophen-3-yl-ethylcarbamoyl)-2-chloro-phenyl]-amide; hydrochloride], the IC50 in assay [2] is under 0.0046 µM. The EC50 in assay [3] is 0.137 µM.
